Structures are written as SMILES.

These results are taken from patent EP4775574A1, “FURAN RING-CONTAINING COMPOUND, PHARMACEUTICAL COMPOSITION THEREOF, AND USE THEREOF” (Wuhan Xirui Pharmaceutical Technology Co., Ltd, priority 2023, dated 2025).

One experiment has as its target T1, Nav1.8 sodium channel (Homo sapiens, UniProt Q9Y5Y9).
T1 construct: host or cells: CHO
As to the kind of experiment: Blocking activity against sodium channel 1.8 (Nav1.8), whole-cell patch-clamp, inhibition rate. It is filed as cell-based. The following applies: CHO cell line stably expressing Nav1.8; patch-clamp; test concentration not given. On the procedure: Experimental objective: The effects of the compounds on the current of the voltage-gated sodium channel (NaV) 1.8 subtype were detected by patch-clamp technique • 2. […] When the cells were detached from the bottom of the dish, about 5 mL of preheated complete medium at 37°C was added. The cell suspension was gently pipetted up and down to separate the aggregated cells. The cell suspension was transferred to a sterile centrifuge tube and centrifuged at 1000 rpm for 5 min to collect the cells. […] First, the voltage was stepped from -130 mV to -10 mV in 10 mV increments for 5 s, and then a 0 mV depolarizing pulse was applied to obtain the half-inactivation voltage (Vhalf). The resting state and half-inactivated state of the sodium current were detected by using a double-pulse protocol. First, the first depolarizing pulse (TP1) was applied to 0 mV for 50 ms to detect the sodium current in the resting state. Then, the voltage was adjusted to Vhalf and maintained for 5 s, followed by restoration of the voltage to -120 mV and maintenance for 20 ms, after which the second depolarizing pulse (TP2) was applied to 0 mV for 50 ms to detect the sodium current in the half-inactivated state. Finally, the voltage was restored to the clamping voltage of -120 mV. Data were repeatedly collected every […] to observe the effect of the drug on the peak values of sodium currents in the two different states. Experimental data were collected by the EPC 10 amplifier (HEKA) and stored in the PatchMaster (HEKA) software. • (2) During patch clamp operation, capillary glass tubes were first pulled into recording electrodes using a microelectrode puller, then the electrodes filled with intracellular solution were installed into the microelectrode holder. Under an inverted microscope, the micromanipulator was used to bring the recording electrode into contact with the cell, and negative pressure suction was applied to form a GΩ seal. At this time, fast capacitance compensation was performed, and then negative pressure was continuously applied to rupture the cell membrane and form the whole-cell recording mode. Finally, slow capacitance compensation was performed, and related parameters were recorded. Leak compensation was not applied. • (3) When the sodium current of whole-cell recording became stable, drug administration was started, and each drug concentration was applied for 5 min (or until the current became stable) before the next concentration was tested. The coverslip coated with cells was placed in the recording bath under an inverted microscope, and the blank control external solution and the test compound working solution were perfused through the recording bath in sequence from low concentration to high concentration by gravity, thereby acting on the cells, while a peristaltic pump was used for liquid exchange during recording. The current detected in the external solution without compounds for each cell was used as its own control group. Each concentration was independently tested twice. All electrophysiological experiments were conducted at room temperature.
First, the current after the effect of each drug concentration and the blank control current were normalized, then the inhibition rate corresponding to each drug concentration was calculated, that is, (1-Icompound /Icontrol), and the mean, standard deviation (SD), and standard error (SE) of the inhibition rate for each concentration were calculated, and the data were expressed as mean ± SE.
On the technique in general: In patch-clamp work, channel activity is measured electrically.

In experiment [1] the test system is KM mouse acetic acid-induced writhing model. Kind of experiment: Analgesic efficacy in mouse acetic acid-induced writhing model. The following applies: single dose, writhes within 20 min, p < 0.05 vs solvent control. It is filed as in vivo, KM mice. As for the experimental part: 1. Objective: The analgesic efficacy of the example was evaluated in a KM mouse acetic acid-induced writhing model. 2. Experimental methods: 2.1 Experimental drugs: The compounds in examples of the present disclosure and reference compound were self-prepared. […] It was prepared using a solvent (Tween 80 + 0.5% MC (v:v = 1:99 pH = 3)). 2.2 Experimental animals: Male KM mice were purchased from Hubei Provincial Center for Disease Control and Prevention (Hubei Provincial Academy of Preventive Medicine), weighing 20 to 25 g at the time of purchase. 2.3 Experimental grouping: Table 6: Efficacy test grouping of compounds in the acetic acid-induced writhing model
2.5 Data collection and analysis • Data were collected using Excel software. • Data were analyzed using Prism (Graph pad software, Inc.) software. 3.
(In general: An intraperitoneal irritant provokes the stretching counted in writhing tests.)

Where [2] appears, read: 30 mg/kg intragastric, second group set (solvent control 20.11 ± 3.55).
Where [3] appears, read: 100 mg/kg intragastric, second group set (solvent control 20.11 ± 3.55).

T1 sequence (Q9Y5Y9 whole entry): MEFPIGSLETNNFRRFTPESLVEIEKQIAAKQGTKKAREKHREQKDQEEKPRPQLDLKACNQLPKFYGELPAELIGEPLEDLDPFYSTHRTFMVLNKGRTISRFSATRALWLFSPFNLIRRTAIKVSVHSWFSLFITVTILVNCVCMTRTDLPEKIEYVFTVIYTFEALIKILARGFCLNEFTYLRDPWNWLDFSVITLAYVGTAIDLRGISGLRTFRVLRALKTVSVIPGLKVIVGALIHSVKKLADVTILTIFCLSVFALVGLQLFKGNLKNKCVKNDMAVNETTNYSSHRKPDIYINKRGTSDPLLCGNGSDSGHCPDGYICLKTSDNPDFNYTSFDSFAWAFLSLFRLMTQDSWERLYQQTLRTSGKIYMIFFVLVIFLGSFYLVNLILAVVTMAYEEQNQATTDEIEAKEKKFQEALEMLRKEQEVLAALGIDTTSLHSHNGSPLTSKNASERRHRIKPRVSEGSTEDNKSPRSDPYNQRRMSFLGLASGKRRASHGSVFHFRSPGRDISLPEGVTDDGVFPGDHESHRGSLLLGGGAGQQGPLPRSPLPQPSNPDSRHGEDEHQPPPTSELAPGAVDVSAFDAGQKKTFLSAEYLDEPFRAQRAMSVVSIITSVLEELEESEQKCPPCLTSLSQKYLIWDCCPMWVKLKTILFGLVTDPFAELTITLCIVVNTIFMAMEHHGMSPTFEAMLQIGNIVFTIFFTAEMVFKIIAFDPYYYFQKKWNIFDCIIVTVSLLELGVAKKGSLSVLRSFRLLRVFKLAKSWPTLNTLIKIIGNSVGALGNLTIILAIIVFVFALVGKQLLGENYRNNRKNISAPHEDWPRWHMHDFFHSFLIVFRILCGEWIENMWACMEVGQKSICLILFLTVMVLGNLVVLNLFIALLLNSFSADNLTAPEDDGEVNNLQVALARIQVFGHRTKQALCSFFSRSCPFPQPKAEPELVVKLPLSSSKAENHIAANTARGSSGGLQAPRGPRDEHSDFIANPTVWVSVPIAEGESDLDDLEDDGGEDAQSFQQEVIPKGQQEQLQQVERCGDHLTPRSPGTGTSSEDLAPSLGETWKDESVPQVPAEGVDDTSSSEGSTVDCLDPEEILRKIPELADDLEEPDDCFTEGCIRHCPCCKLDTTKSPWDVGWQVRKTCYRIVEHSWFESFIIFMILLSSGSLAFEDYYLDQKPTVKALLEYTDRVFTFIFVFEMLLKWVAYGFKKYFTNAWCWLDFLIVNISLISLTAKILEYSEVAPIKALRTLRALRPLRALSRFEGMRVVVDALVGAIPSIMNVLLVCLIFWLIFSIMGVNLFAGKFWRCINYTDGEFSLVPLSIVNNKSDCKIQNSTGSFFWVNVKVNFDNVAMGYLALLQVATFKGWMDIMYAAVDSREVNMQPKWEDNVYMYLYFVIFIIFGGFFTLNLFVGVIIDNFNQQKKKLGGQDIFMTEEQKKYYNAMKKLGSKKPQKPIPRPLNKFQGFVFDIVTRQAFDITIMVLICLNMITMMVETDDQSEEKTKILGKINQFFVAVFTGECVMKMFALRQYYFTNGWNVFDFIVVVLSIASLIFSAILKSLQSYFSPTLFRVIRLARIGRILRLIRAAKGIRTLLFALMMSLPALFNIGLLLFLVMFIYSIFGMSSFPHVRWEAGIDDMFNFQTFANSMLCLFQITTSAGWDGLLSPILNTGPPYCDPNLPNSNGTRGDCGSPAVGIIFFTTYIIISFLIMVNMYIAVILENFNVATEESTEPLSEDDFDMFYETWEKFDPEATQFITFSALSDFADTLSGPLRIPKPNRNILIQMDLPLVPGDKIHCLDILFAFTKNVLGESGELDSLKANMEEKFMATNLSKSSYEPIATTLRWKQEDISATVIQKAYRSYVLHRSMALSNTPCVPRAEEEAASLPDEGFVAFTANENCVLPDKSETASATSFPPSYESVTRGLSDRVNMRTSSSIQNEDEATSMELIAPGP

On to `COCCOc1c([C@H]2[C@H](C(=O)Nc3ccc(F)c(C(=N)NO)c3)O[C@@](C)(C(F)(F)F)[C@H]2C)ccc(F)c1F` [Example 10], for which the “Inhibition rate (%)” value at Nav1.8 sodium channel is reported as 99.65%. The same compound returned a Number of writhes in experiment [1] (30 mg/kg intragastric, first group set (solvent control 16.11 ± 5.84)) of 12.10 ± 6.10.

`C[C@H]1[C@@H](c2ccc(F)c(F)c2OC2COC2)[C@H](C(=O)Nc2ccc(F)c(C(=N)NO)c2)O[C@@]1(C)C(F)(F)F` [Example 11]: the “Inhibition rate (%)” value on Nav1.8 sodium channel was 87.35%. For the same compound, the Number of writhes in experiment [1] (setting [2]) stood at 11.56 ± 5.15; in experiment [1] (setting [3]), 8.38 ± 6.12.

As for `COc1c([C@H]2[C@H](C(=O)Nc3ccnc(C(N)=O)c3)O[C@@](C)(C(F)(F)F)[C@H]2C)ccc(F)c1F` [Reference compound, reference compound], at Nav1.8 sodium channel, the “Inhibition rate (%)” value worked out at 94.49%. Moreover, the Number of writhes in experiment [1] (setting [2]) is recorded as 11.86 ± 3.53; in experiment [1] (setting [3]), 10.13 ± 3.64.
